One data set deals with Chymotrypsin (Homo sapiens, UniProt Q99895+P17538+P40313+Q6GPI1). Kind of data set: Inhibition of chymotrypsin (unknown origin) using N-Suc-Ala-Ala-Pro-Phe-pNA as substrate incubated for 30 mins followed by substrate addition and measured after 60 mins by microplate reader analysis. Type of data set: protein assay.
The next data set concerns the target T1, Coagulation factor XII (Homo sapiens, UniProt P00748).
T1 sequence (P00748 whole entry): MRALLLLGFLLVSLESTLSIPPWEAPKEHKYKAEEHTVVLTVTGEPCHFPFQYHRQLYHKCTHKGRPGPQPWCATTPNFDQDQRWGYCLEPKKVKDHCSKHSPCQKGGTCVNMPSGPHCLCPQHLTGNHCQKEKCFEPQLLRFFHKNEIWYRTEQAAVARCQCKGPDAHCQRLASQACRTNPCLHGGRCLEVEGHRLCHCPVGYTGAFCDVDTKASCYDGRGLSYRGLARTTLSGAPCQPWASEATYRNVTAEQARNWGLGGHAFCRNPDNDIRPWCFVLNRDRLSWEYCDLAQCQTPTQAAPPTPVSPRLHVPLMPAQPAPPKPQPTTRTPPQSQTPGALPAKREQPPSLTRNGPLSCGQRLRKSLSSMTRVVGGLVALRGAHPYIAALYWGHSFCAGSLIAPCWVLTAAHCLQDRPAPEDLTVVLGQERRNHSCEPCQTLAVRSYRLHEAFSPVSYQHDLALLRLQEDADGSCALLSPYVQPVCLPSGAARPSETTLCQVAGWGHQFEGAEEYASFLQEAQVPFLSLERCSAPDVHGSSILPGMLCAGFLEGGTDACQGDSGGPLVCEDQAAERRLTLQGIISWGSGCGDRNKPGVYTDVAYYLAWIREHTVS
Put plainly: Inhibition of FXIIa (unknown origin) using H-D-ProPhe-Arg-pNA.2HCl as substrate incubated for 30 mins followed by substrate addition and measured after 60 mins by microplate reader analysis.

For data set [1], the target named is Tissue-type plasminogen activator (Homo sapiens, UniProt P00750). Put plainly: Inhibition of tPA (unknown origin) using H-D-Ile-Pro-Arg-pNA-2HCl as substrate incubated for 30 mins followed by substrate addition and measured after 60 mins by microplate reader analysis.
Sequence of Tissue-type plasminogen activator (P00750 whole entry): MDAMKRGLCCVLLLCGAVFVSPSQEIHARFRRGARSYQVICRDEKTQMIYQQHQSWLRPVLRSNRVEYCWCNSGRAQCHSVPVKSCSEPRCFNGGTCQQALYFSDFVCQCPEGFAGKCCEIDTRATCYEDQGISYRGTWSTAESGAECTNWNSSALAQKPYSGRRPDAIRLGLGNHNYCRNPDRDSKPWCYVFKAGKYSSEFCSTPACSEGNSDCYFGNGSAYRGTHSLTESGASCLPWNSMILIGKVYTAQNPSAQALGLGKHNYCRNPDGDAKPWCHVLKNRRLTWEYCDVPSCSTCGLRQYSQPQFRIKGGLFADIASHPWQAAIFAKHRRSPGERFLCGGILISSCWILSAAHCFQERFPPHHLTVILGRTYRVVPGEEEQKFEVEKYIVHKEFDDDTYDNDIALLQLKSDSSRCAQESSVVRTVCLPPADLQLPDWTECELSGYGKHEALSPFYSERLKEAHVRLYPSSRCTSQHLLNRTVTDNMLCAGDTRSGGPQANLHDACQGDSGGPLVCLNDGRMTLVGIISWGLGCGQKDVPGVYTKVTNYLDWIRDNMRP
Data set [2] in a line: Selectivity index, ratio of IC50 for inhibition of FXa (unknown origin) using Z-D-Arg-Gly-Arg-pNA.2HCl as substrate to IC50 for inhibition of human FXIa using p-Glu-Pro-Arg-pNA.HCl as substrate.
Data set [3] can be described thus: Selectivity index, ratio of IC50 for inhibition of plasmin (unknown origin) using PyroGlu-Phe-Lys-pNA.HCl as substrate to IC50 for inhibition of human FXIa using p-Glu-Pro-Arg-pNA.HCl as substrate.
For a further data set, the target named is Plasminogen (Homo sapiens, UniProt P00747). Kind of data set: Inhibition of plasmin (unknown origin) using PyroGlu-Phe-Lys-pNA.HCl as substrate incubated for 30 mins followed by substrate addition and measured after 60 mins by microplate reader analysis.
Sequence of Plasminogen (P00747 97-580 limits assumed): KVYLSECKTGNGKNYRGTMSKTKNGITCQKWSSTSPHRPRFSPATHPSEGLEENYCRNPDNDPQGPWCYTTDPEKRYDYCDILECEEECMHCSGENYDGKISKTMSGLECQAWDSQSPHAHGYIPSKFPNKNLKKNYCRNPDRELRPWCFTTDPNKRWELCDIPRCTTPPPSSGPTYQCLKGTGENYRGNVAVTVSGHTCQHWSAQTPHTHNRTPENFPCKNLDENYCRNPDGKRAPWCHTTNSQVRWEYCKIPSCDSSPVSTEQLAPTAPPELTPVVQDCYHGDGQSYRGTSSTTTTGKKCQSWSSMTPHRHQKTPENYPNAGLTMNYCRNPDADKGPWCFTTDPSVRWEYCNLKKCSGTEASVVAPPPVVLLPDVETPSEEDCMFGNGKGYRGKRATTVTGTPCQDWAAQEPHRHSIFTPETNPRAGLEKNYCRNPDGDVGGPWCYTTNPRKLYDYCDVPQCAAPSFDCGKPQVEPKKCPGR
Sequence of Plasminogen (P00747 581-810 limits assumed): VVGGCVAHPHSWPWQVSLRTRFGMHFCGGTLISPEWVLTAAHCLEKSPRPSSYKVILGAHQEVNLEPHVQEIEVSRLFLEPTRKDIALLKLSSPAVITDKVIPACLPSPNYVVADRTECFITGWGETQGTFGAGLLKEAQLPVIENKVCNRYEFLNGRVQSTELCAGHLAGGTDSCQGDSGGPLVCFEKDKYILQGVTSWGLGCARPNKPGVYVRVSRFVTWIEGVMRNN
A short description of data set [4]: Selectivity index, ratio of IC50 for inhibition of thrombin (unknown origin) using H-D-Phe-Pip-Arg-pNA.2HCl as substrate to IC50 for inhibition of human FXIa using p-Glu-Pro-Arg-pNA.HCl as substrate.
Data set [5] can be described thus: Selectivity index, ratio of IC50 for inhibition of chymotrypsin (unknown origin) using N-Suc-Ala-Ala-Pro-Phe-pNA as substrate to IC50 for inhibition of human FXIa using p-Glu-Pro-Arg-pNA.HCl as substrate.
In data set [6] the test system is Plasma. Kind of data set: Anticoagulant activity in citrated human plasma assessed as prolongation of activated partial thromboplastin time at 1 uM incubated for 3 mins by aPTT reagent based automated coagulometric analysis relative to control. Type of data set: functional. The note with it: 0.05 h.
Another data set concerns the target Trypsin (Homo sapiens, UniProt P07477+P07478+P35030). Kind of data set: Inhibition of trypsin (unknown origin) using Bz-Ile-Glu(gamma-OR)-Gly-Arg-pNA.HCl as substrate incubated for 30 mins followed by substrate addition and measured after 60 mins by microplate reader analysis. Type of data set: protein assay.
A further data set has as its target Coagulation factor XI (Homo sapiens, UniProt P03951). Kind of data set: Inhibition of human FXIa using p-Glu-Pro-Arg-pNA.HCl as substrate incubated for 30 mins followed by substrate addition and measured after 60 mins by microplate reader analysis.
For another data set, the target named is Plasma kallikrein (Homo sapiens, UniProt P03952). Kind of data set: Inhibition of PKal (unknown origin) using H-D-Pro-Phe-Arg-pNA.2HCl as substrate incubated for 30 mins followed by substrate addition and measured after 60 mins by microplate reader analysis.
Sequence of Plasma kallikrein (P03952 20-390 limits assumed): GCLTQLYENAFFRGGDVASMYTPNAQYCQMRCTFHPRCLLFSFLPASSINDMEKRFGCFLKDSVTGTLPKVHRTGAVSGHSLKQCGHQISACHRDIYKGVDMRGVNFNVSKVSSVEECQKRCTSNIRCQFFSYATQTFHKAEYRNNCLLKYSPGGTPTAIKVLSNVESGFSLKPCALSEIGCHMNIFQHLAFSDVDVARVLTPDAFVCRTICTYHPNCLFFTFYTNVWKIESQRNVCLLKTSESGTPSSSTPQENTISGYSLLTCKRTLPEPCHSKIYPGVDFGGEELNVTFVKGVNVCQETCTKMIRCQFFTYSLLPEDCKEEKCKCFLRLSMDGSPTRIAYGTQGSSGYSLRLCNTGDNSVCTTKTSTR
Sequence of Plasma kallikrein (P03952 391-638 limits assumed): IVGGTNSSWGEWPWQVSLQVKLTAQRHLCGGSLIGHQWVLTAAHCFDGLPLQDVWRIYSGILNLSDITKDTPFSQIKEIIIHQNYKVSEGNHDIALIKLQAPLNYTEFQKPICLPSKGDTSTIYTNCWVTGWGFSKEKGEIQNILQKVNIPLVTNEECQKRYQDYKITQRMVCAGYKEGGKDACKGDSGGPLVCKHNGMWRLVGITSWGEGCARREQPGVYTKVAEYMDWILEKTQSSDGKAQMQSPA
The nature of data set [7]: Selectivity index, ratio of IC50 for inhibition of tPA (unknown origin) using H-D-Ile-Pro-Arg-pNA-2HCl as substrate to IC50 for inhibition of human FXIa using p-Glu-Pro-Arg-pNA.HCl as substrate.
Another data set deals with Prothrombin (Homo sapiens, UniProt P00734). Kind of data set: Inhibition of thrombin (unknown origin) using H-D-Phe-Pip-Arg-pNA.2HCl as substrate incubated for 30 mins followed by substrate addition and measured after 60 mins by microplate reader analysis.
The nature of data set [8]: Selectivity index, ratio of IC50 for inhibition of trypsin (unknown origin) using Bz-Ile-Glu(gamma-OR)-Gly-Arg-pNA.HCl as substrate to IC50 for inhibition of human FXIa using p-Glu-Pro-Arg-pNA.HCl as substrate.
The subject of data set [9] is Plasma. Put plainly: Anticoagulant activity in mouse plasma assessed as prolongation of activated partial thromboplastin time incubated for 3 mins by aPTT reagent based automated coagulometric analysis. Format: functional. Conditions: 0.05 h.
The next data set concerns the target Coagulation factor X (Homo sapiens, UniProt P00742). Kind of data set: Inhibition of FXa (unknown origin) using Z-D-Arg-Gly-Arg-pNA.2HCl as substrate incubated for 30 mins followed by substrate addition and measured after 60 mins by microplate reader analysis.
Data set [10] in a line: Selectivity index, ratio of IC50 for inhibition of FXIIa (unknown origin) using H-D-ProPhe-Arg-pNA.2HCl as substrate to IC50 for inhibition of human FXIa using p-Glu-Pro-Arg-pNA.HCl as substrate.
For data set [11], the system named is Plasma. Put plainly: Anticoagulant activity in citrated human plasma assessed as prolongation of activated partial thromboplastin time incubated for 3 mins by aPTT reagent based automated coagulometric analysis. Format: functional. The note with it: for EC1.5: 0.05 h.
Data set [12] deals with Plasma. Kind of data set: Anticoagulant activity in citrated human plasma assessed as prolongation of prothrombin time incubated for 3 mins by PT reagent based automated coagulometric analysis. Type of data set: functional, cell-free.
Data set [13] has as its system HK-2. Put plainly: Cytotoxicity against human HK-2 cells assessed as reduction in cell viability at 50 uM incubated for 24 hrs by MTT assay. Type of data set: toxicity, cell-based. The note with it: hk-2, 24 h.
A short description of data set [14]: Plasma protein binding in human. Format: ADME, cell-free. Conditions: read-out: PPB (converted).
Data set [15] can be described thus: Metabolic stability in human liver microsome assessed as half life. Format: ADME. Conditions: liver microsomes.
The nature of data set [16]: Apparent permeability in MDCK-MDR1 cells. The note with it: dog. Format: ADME, cell-based, Canis lupus familiaris.
The subject of data set [17] is HK-2. Kind of data set: Cytotoxicity against human HK-2 cells assessed as reduction in cell viability at 1 to 50 uM incubated for 24 hrs by MTT assay. The note with it: hk-2, 24 h, dose 1-50 µM. Type of data set: toxicity, cell-based.
For another data set, the system named is HepG2. Kind of data set: Cytotoxicity against human HepG2 cells assessed as reduction in cell viability at 1 to 50 uM incubated for 24 hrs by MTT assay. Type of data set: toxicity, cell-based. The note with it: hepg2, 24 h, dose 1-50 µM.
The nature of data set [18]: Cytotoxicity against human AC16 [Human hybrid] cells assessed as reduction in cell viability at 1 to 50 uM incubated for 24 hrs by MTT assay. Format: toxicity, cell-based. Conditions: dose 1-50 µM.
Another data set is described as follows: physchem. The note with it: aqueous medium, pH 7.4.
Data set [19] has as its system Mus musculus. Kind of data set: Antithrombotic activity in FeCl3-induced carotid arterial thrombosis C57BL/6J mouse model assessed as increase in peak velocity at 10 mg/kg, po measured after 0.5 to 4 hrs. Format: functional, organism-based. Conditions: time 0.5-4 hrs.
Data set [20] relates to Mus musculus. Kind of data set: Antithrombotic activity in FeCl3-induced carotid arterial thrombosis C57BL/6J mouse model assessed as increase in blood flow velocity at 10 mg/kg, po measured after 0.5 to 4 hrs. Conditions: time 0.5-4 hrs. Type of data set: functional, organism-based.

In brackets after ≈: the same amount, converted by molar mass. Activity calls are given as the source filed them. The rule behind the calls is not given here. Where only a bound is given, the exact number is not on record here.

Experimental findings from ChEMBL document CHEMBL6109084 (Eur J Med Chem, 2025) are described below.

Sequence of Coagulation factor XI (P03951 19-387 limits assumed): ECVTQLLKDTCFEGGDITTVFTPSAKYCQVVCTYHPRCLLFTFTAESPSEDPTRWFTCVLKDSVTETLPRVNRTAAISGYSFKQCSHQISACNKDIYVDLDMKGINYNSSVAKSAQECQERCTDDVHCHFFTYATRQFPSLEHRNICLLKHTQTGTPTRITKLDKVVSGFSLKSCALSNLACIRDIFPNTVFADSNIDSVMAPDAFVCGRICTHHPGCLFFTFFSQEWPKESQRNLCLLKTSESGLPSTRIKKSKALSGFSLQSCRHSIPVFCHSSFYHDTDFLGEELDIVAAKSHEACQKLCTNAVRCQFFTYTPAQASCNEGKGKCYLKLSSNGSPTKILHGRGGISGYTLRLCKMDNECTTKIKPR
Sequence of Coagulation factor XI (P03951 388-625 limits assumed): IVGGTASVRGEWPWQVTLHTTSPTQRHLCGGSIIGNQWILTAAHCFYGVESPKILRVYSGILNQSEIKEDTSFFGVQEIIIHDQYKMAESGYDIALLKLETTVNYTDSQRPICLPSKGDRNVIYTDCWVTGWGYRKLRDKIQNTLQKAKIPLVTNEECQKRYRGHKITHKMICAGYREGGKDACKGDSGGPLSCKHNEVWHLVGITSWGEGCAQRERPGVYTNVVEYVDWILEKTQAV
Sequence of Coagulation factor X (P00742 41-179 limits assumed): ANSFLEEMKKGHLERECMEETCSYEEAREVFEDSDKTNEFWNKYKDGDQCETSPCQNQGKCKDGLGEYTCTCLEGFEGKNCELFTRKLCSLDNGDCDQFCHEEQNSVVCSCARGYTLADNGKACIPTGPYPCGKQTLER
Sequence of Coagulation factor X (P00742 235-488 limits assumed): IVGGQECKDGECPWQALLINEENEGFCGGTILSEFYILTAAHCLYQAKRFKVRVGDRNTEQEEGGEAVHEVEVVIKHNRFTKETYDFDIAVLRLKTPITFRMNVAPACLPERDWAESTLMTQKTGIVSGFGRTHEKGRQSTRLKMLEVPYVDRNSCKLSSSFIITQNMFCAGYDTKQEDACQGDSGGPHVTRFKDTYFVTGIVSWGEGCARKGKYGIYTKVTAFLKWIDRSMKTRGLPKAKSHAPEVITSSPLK
Description for physchem: Aqueous solubility of the compound in DMSO at pH 7.4 incubated for 12 hrs by turbidimetric based UV spectrophotometric analysis

Take `CC[C@@H](c1cc(-c2ccc(N)nc2F)ccn1)n1cc(OC)c(-c2cc(Cl)ccc2-n2cnnn2)cc1=O`: the IC50 on Chymotrypsin was over 1000 nM; against Coagulation factor XII, over 1000 nM; in [1], over 1000 nM; on Plasminogen, over 1000 nM; against Trypsin it was over 1000 nM; at Coagulation factor XI it was 0.31 nM. The IC50 is 36 nM against Plasma kallikrein, over 1000 nM against Prothrombin and over 1000 nM on Coagulation factor X. In addition, the Ratio IC50 in data set [2], in data set [3], in [4], in data set [5], in [7] and in [8] was over 1000 each time. The Ratio IC50 in data set [10] was over 1000. For the same compound, the Activity is 335.4% in the data set with Plasma [6] and “Dose-dependent-effect” with Plasma [11]. Besides, the EC1.5 was found to be 1.5 µM with Plasma [9] and 0.34 µM with Plasma [11]. Moreover, the result in the data set with Plasma [12] was inactive.

Regarding `CC[C@@H](c1cc(-c2ccc(N)nc2)ccn1)n1cc(OC)c(-c2cc(Cl)ccc2-n2cnnn2)cc1=O`, the IC50 is over 1000 nM on Chymotrypsin; over 1000 nM on Coagulation factor XII; over 1000 nM in data set [1]; over 1000 nM against Plasminogen; over 1000 nM at Trypsin; 0.13 nM on Coagulation factor XI. Moreover, the IC50 at Plasma kallikrein is 37 nM; against Prothrombin, over 1000 nM; against Coagulation factor X it was over 1000 nM. Moreover, the Ratio IC50 in data set [2], in [3], in [4], in data set [5], in data set [7] and in data set [8] was over 1000 throughout. Further, the Ratio IC50 in data set [10] is over 1000. Besides, the Activity in the data set on Plasma [6] is 368.3%; in the data set on HK-2 [13], “Toxic”; with Plasma [11] it was “Dose-dependent-effect”. Further, the EC1.5 was 1.8 µM with Plasma [9] and 0.29 µM in the data set with Plasma [11]. Moreover, the result with Plasma [12] was inactive.

For the compound `COc1cn(Cc2cccc(-c3ccncc3)c2)c(=O)cc1-c1cc(Cl)ccc1-n1cnnn1`, the fraction unbound in [14] is 0.027. In the data set with Plasma [6], the Activity came out at 122.1%. The compound also showed an IC50 against Coagulation factor XI of 0.5 nM.

Consider `COc1cn(Cc2cc(-c3ccc(N)nc3)ccn2)c(=O)cc1-c1cc(Cl)ccc1-n1cnnn1`, for which the IC50 at Chymotrypsin was over 1000 nM; at Coagulation factor XII it was over 1000 nM; in data set [1], over 1000 nM; at Plasminogen it was over 1000 nM; against Trypsin, over 1000 nM; at Coagulation factor XI it was 0.19 nM. In addition, the IC50 against Plasma kallikrein was 97 nM; against Prothrombin, over 1000 nM; on Coagulation factor X, over 1000 nM. Besides, the Ratio IC50 in [2], in data set [3], in [4], in [5], in data set [7] and in [8] was over 1000 each time. The Ratio IC50 in [10] is over 1000. For the same compound, the Activity in the data set on Plasma [6] is 193.8%; with Plasma [11] it was “Dose-dependent-effect”; in the data set with HK-2 [17], “Non-toxic”; in the data set with HepG2 it was “Non-toxic”; in [18], “Non-toxic”. Further, in [15], the half-life was over 3 h. Besides, in the data set on Plasma [11], the EC1.5 is 0.57 µM. Moreover, the Papp in [16] was found to be 0.13 ×10⁻⁶ cm/s. Further, in the data set with Plasma [12], the result was inactive. This compound had a kinetic solubility at 12 h in the data set “physchem” of 193 µg/mL (≈ 396 µM).

Consider `CCC(c1cccc(-c2ccc(N)nc2)c1)n1cc(OC)c(-c2cc(Cl)ccc2-n2cnnn2)cc1=O` (stereo not given), for which the fraction unbound in data set [14] is 0.004. Moreover, in the data set on Plasma [6], the Activity is 45.7%. At Coagulation factor XI, this compound displayed an IC50 of 0.24 nM.

On to `COc1cn(Cc2cc(-c3ccncc3)ccn2)c(=O)cc1-c1cc(Cl)ccc1-n1cnnn1`, for which, in data set [14], the fraction unbound is 0.159. Also, in the data set on Plasma [6], the Activity amounted to 167.2%. On Coagulation factor XI, this compound had an IC50 of 1.2 nM.

Regarding `CC[C@@H](C(=O)Nc1ccc(C(N)=O)c(F)c1)n1cc(OC)c(-c2cc(Cl)ccc2-n2cc(Cl)nn2)cc1=O`, the Activity in the data set with Plasma [6] is recorded as 248.2%; in the data set on Mus musculus [20], “Active; Outperformed Asundexian And Compound F”. Moreover, in the data set with Mus musculus [19], the result was Active. Also, the EC1.5 in the data set on Plasma [9] is 2.7 µM.

For the compound `CC[C@H](c1cc(-c2ccc(N)nc2)ccn1)n1cc(OC)c(-c2cc(Cl)ccc2-n2cnnn2)cc1=O`, the Activity in the data set on Plasma [6] is given as 59.6%; with HK-2 [13] it was “Toxic”. For the same compound, at Coagulation factor XI, half-maximal inhibition (IC50) was put at 10.6 nM.
